Laboratory results from patent publication US9820972B2, “Antiviral compounds highly effective as HCV-NS5A inhibitor” (priority 2013, dated 2017).

What follows are compounds tested against GT-1a of NS5A Replicon (assay: HCV double reporter gene (Renilla luciferase) replicon assay, GT-1a). Conditions: GT-1a replicon; class symbols; read-out: EC50 For GT-1a of NS5A Replicon.
Assay type: cell-based, Hepatitis C virus (HCV)
Protocol: Antiviral Assay for Inhibition Activity (EC50):
The study is completed by a new constructed double reporter genes replicon assay system, the capacity of viral replicon in infected cell is determined by detecting the reporter gene Renilla luciferase. The relationship of reporter genes, HCV RNA replicon and viral proteins is well linear. 8 gradient concentrations for 2-fold dilution, 3 wells, 3 times repetition and 1 or 2 control drugs are set to finally determine EC50 of compound.
THF was distilled from sodium metal and benzophenone. DCM, pentane and hexane were distilled form calcium hydride. Special raw material and intermediate in the invention were ordered by contract synthesis from Zannan SciTech Co., Let in China, others reagents were purchased from Shanghai reagent company, Aldrich, Acros etc. As intermediates or products during the synthesis is not required for the reaction and other tests the next step, the synthesis is repeated until a sufficient number of times. The invention of the prepared compounds of […] (HCV NS5A) inhibitory activity test was performed by CRO service units such as WuXi AppTec etc.

Compound	EC50
COC(=O)N[C@H](C(=O)N1CCC[C@H]1c1nc2cc(-c3csc4c(-c5ccc(-c6c[nH]c([C@@H]7CCCN7C(=O)[C@H](NC(=O)OC)c7ccccc7)n6)cc5)csc34)ccc2[nH]1)C(C)C [Ref-4, reference compound]	1 to 999 pM

Same assay, conditions: Hepatitis C virus, GT1A, GT-1a replicon; class symbols; read-out: EC50 For GT-1a of NS5A Replicon

Compound	EC50
COC(=O)N[C@@H](C(=O)N1CCCC1c1ncc(-c2ccc(-c3cc4sc(-c5cnc([C@@H]6CCCN6C(=O)[C@H](NC(=O)OC)c6ccccc6)[nH]5)cc4s3)cc2)[nH]1)c1ccccc1 (stereo partly shown) [Ref-3, reference compound]	1 to 999 pM
COC(=O)N[C@@H](C(=O)N1CC=CC1c1ncc(-c2ccc(-c3csc4c(-c5c[nH]c([C@@H]6CCCN6C(=O)[C@H](NC(=O)OC)c6ccccc6)n5)csc34)cc2)[nH]1)c1ccccc1 (stereo partly shown) [Compound 6fs]	1 to 999 pM
COC(=O)N[C@H](C(=O)N1CN(C(=O)N2Cc3cc4c(cc3C2)OCO4)CC1c1nc(-c2cc3sc(-c4ccc(-c5c[nH]c([C@@H]6CCCN6C(=O)[C@@H](NC(=O)OC)C(C)C)n5)cc4)cc3s2)c[nH]1)C(C)C (stereo partly shown) [Compound 6fa]	1 to 999 pM
COC(=O)N[C@@H](C(=O)N1CC=CC1c1nc(-c2ccc(-c3ccc(-c4c[nH]c(C5C=CCN5C(=O)[C@H](NC(=O)OC)c5ccccc5)n4)cc3)cc2)c[nH]1)c1ccccc1 (stereo partly shown) [Compound 6ca]	1 to 999 pM
COC(=O)N[C@H](C(=O)N1C[C@@H](OC(=O)N2Cc3cc4c(cc3C2)OCO4)CC1c1nc(-c2ccc(-c3ccc(-c4c[nH]c([C@@H]5COCCN5C(=O)[C@@H](NC(=O)OC)C(C)C)n4)cc3)cc2)c[nH]1)C(C)C (stereo partly shown) [Compound 6ah]	1 to 999 pM
COC(=O)N[C@H](C(=O)N1CC=C[C@H]1c1ncc(-c2ccc(-c3ccc(-c4cnc([C@@H]5CCCN5C(=O)[C@@H](NC(=O)OC)C5CCCC5)[nH]4)cc3)cc2)[nH]1)C1CCCC1 [Compound 6dp]	1 to 999 pM
COC(=O)N[C@H](C(=O)N1CN(C(=O)N2Cc3cc4c(cc3C2)OCO4)CC1c1nc(-c2ccc(-c3ccc(-c4c[nH]c([C@@H]5CCCN5C(=O)[C@@H](NC(=O)OC)C(C)C)n4)cc3)cc2)c[nH]1)C(C)C (stereo partly shown) [Compound 6af]	1 to 999 pM
COC(=O)N[C@H](C(=O)N1CC(OC(=O)N2Cc3cc4c(cc3C2)OCO4)CC1c1nc(-c2ccc(-c3ccc(-c4c[nH]c([C@@H]5CC6(CC6)CN5C(=O)[C@@H](NC(=O)OC)C(C)C)n4)cc3)cc2)c[nH]1)C(C)C (stereo partly shown) [Compound 6ak]	1 to 999 pM
CC(C)[C@H](NC(=O)OC1CCCC1)C(=O)N1CCC[C@H]1c1nc(-c2ccc(-c3ccc(-c4cnc([C@@H]5C[C@@H](OC(=O)N6Cc7ccc8c(c7C6)OCO8)CN5C(=O)[C@@H](NC(=O)OC5CCCC5)C(C)C)[nH]4)cc3)cc2)c[nH]1 [Compound 6h]	> 50000 pM
COC(=O)N[C@@H](C(=O)N1CC=C[C@H]1c1ncc(-c2cc3sc(-c4ccc(-c5cnc([C@@H]6CCCN6C(=O)[C@H](NC(=O)OC)c6ccccc6)[nH]5)cc4)cc3s2)[nH]1)c1ccccc1 [Compound 6fk]	1 to 999 pM
CC(C)[C@H](NC(=O)OC(C)(C)C)C(=O)N1CCC[C@H]1c1nc(-c2ccc(-c3ccc(-c4cnc([C@@H]5C[C@@H](OC(=O)N6Cc7cc8c(cc7C6)OCO8)CN5C(=O)[C@@H](NC(=O)OC(C)(C)C)C(C)C)[nH]4)cc3)cc2)c[nH]1 [Compound 6j]	> 50000 pM
COC(=O)N[C@H](C(=O)N1CN(C(=O)N2Cc3ccc(OC)cc3C2)CC1c1nc(-c2ccc(-c3ccc(-c4c[nH]c([C@@H]5CCCN5C(=O)[C@@H](NC(=O)OC)C(C)C)n4)cc3)cc2)c[nH]1)C(C)C (stereo partly shown) [Compound 6av]	1 to 999 pM
COC(=O)N[C@H](C(=O)N1CN(C(=O)N2Cc3cc4c(cc3C2)OCO4)CC1c1nc(-c2ccc(-c3ccc(-c4c[nH]c([C@@H]5CC6(CC6)CN5C(=O)[C@@H](NC(=O)OC)C(C)C)n4)cc3)cc2)c[nH]1)C(C)C (stereo partly shown) [Compound 6am]	1 to 999 pM
COC(=O)N[C@H](C(=O)N1CC=C[C@H]1c1ncc(-c2cc3sc(-c4ccc(-c5cnc([C@@H]6CCCN6C(=O)[C@@H](NC(=O)OC)C(C)C)[nH]5)cc4)cc3s2)[nH]1)C(C)C [Compound 6fn]	1 to 999 pM
COC(=O)N[C@H](C(=O)N1CCC(O)[C@H]1c1ncc(-c2ccc(-c3ccc(-c4cnc([C@@H]5C=CCN5C(=O)[C@@H](NC(=O)OC)C(C)C)[nH]4)cc3)cc2)[nH]1)C(C)C (stereo partly shown) [Compound 6dr]	1 to 999 pM
CC(C)[C@H](NC(=O)OC1CCCC1)C(=O)N1CCC[C@H]1c1nc(-c2ccc(-c3ccc(-c4cnc([C@@H]5C[C@@H](OC(=O)N6Cc7cccc(F)c7C6)CN5C(=O)[C@@H](NC(=O)OC5CCCC5)C(C)C)[nH]4)cc3)cc2)c[nH]1 [Compound 6v]	> 50000 pM

Compound	EC50
COC(=O)NC(C(=O)N1CCC[C@H]1c1nc(-c2cc3sc(-c4ccc(-c5c[nH]c(C6CN(C(=O)N7Cc8cc9c(cc8C7)OCO9)CN6C(=O)[C@@H](NC(=O)OC)C(C)C)n5)cc4)cc3s2)c[nH]1)c1ccccc1 (stereo partly shown) [Compound 6fb]	1 to 999 pM
COC(=O)N[C@H](C(=O)N1CC=C[C@H]1c1ncc(-c2ccc(-c3ccc(-c4cnc([C@@H]5CNCN5C(=O)[C@@H](NC(=O)OC)C(C)C)[nH]4)cc3)cc2)[nH]1)C(C)C [Compound 6cv]	1 to 999 pM
COC(=O)N[C@H](C(=O)N1CC=C[C@H]1c1nc(-c2ccc(-c3ccc(-c4cnc([C@@H]5CC6(CN5C(=O)[C@@H](NC(=O)OC)C(C)C)OCCO6)[nH]4)cc3)cc2)c[nH]1)C(C)C [Compound 6dt]	1 to 999 pM
COC(=O)N[C@H](C(=O)N1CCCC1c1nc2cc(-c3ccc4c(c3)C(F)(F)c3cc(-c5c[nH]c([C@@H]6CN(C(=O)N7Cc8cc9c(cc8C7)OCO9)CN6C(=O)[C@@H](NC(=O)OC)C(C)C)n5)ccc3-4)ccc2[nH]1)C(C)C (stereo partly shown) [Compound 6bs]	> 50000 pM
COC(=O)N[C@@H](C(=O)N1CC=C[C@H]1c1ncc(-c2ccc(-c3ccc(-c4c[nH]c([C@@H]5CCCN5C(=O)[C@H](NC(=O)OC)c5ccccc5)n4)cc3)cc2)[nH]1)c1ccccc1 [Compound 6dz]	1 to 999 pM
COC(=O)N[C@H](C(=O)N1CCCC1c1ncc(-c2ccc3c(c2)cc2n3C(c3ccccc3)Oc3cc(-c4cnc([C@@H]5C=CCN5C(=O)[C@@H](NC(=O)OC)C(C)C)[nH]4)ccc3-2)[nH]1)C(C)C (stereo partly shown) [Compound 6cd]	> 50000 pM
COC(=O)N[C@H](C(=O)N1CC(OC(=O)N2Cc3cc4c(cc3C2)OCO4)CC1c1nc(-c2ccc(-c3cccc4c(-c5c[nH]c([C@@H]6CCCN6C(=O)[C@@H](NC(=O)OC)C(C)C)n5)cccc34)cc2)c[nH]1)C(C)C (stereo partly shown) [Compound 6bu]	1 to 999 pM
COC(=O)N[C@H](C(=O)N1CN(C(=O)N2Cc3ccc4c(c3C2)OCO4)CC1c1nc(-c2ccc(-c3ccc(-c4c[nH]c([C@@H]5CC6(CC6)CN5C(=O)[C@@H](NC(=O)OC)C(C)C)n4)cc3)cc2)c[nH]1)C(C)C (stereo partly shown) [Compound 6ap]	1 to 999 pM
COC(=O)N[C@@H](C(=O)N1CC=CC1c1nc(-c2ccc(-c3cc4sc(-c5c[nH]c(C6C=CCN6C(=O)[C@H](NC(=O)OC)c6ccccc6)n5)cc4s3)cc2)c[nH]1)c1ccccc1 (stereo partly shown) [Compound 6fe]	1 to 999 pM
COC(=O)N[C@H](C(=O)N1CC(OC(=O)N2Cc3cc4c(cc3C2)OCO4)CC1c1nc2cc(-c3ccc4c(c3)C(F)(F)c3cc(-c5c[nH]c([C@@H]6CCCN6C(=O)[C@@H](NC(=O)OC)C(C)C)n5)ccc3-4)ccc2[nH]1)C(C)C (stereo partly shown) [Compound 6br]	1 to 999 pM
CNC(=O)N[C@@H](C(=O)N1CC=CC1c1nc(-c2ccc(-c3ccc(-c4c[nH]c(C5CCCN5C(=O)[C@H](NC(=O)NC)c5ccccc5)n4)cc3)cc2)c[nH]1)c1ccccc1 (stereo partly shown) [Compound 6cf]	1 to 999 pM
CC(C)C(NC(=O)N(C)C)C(=O)N1CC=C[C@H]1c1nc(-c2ccc(-c3ccc(-c4c[nH]c(C5CCCN5C(=O)[C@@H](NC(=O)N(C)C)C(C)C)n4)cc3)cc2)c[nH]1 (stereo partly shown) [Compound 6cg]	1 to 999 pM
COC(=O)N[C@H](C(=O)N1CC(OC(=O)N2Cc3cc4c(cc3C2)OCO4)CC1c1nc(-c2ccc3c(c2)Cc2cc(-c4c[nH]c([C@@H]5CCCN5C(=O)[C@@H](NC(=O)OC)C(C)C)n4)ccc2-3)c[nH]1)C(C)C (stereo partly shown) [Compound 6az]	1 to 999 pM
COC(=O)N[C@H](C(=O)N1CCC[C@H]1c1nc(-c2ccc(-c3ccc(-c4cnc([C@@H]5C[C@@H](OC(=O)N6Cc7cccc(F)c7C6)CN5C(=O)[C@@H](NC(=O)OC)C(C)C)[nH]4)cc3)cc2)c[nH]1)C(C)C [Compound 6s]	1 to 999 pM
COC(=O)N[C@H](C(=O)N1CCCC1c1nc2cc(-c3ccc4c(c3)C(F)(F)c3cc(-c5c[nH]c([C@@H]6C=CCN6C(=O)[C@@H](NC(=O)OC)C(C)C)n5)ccc3-4)ccc2[nH]1)C(C)C (stereo partly shown) [Compound 6bq]	1 to 999 pM
COC(=O)N[C@H](C(=O)N1C[C@@H](OC(=O)N2Cc3ccc4c(c3C2)OCO4)CC1c1nc(-c2ccc(-c3ccc(-c4c[nH]c([C@@H]5CCCCN5C(=O)[C@@H](NC(=O)OC)C(C)C)n4)cc3)cc2)c[nH]1)C(C)C (stereo partly shown) [Compound 6ad]	1 to 999 pM

Same assay, conditions: Hepatitis C virus, GT1A, read-out: EC50 For GT-1a of NS5A Replicon

Compound	EC50
CC(C)[C@H](NC(=O)OC(C)(C)C)C(=O)N1C[C@H](OC(=O)N2Cc3ccc4c(c3C2)OCO4)CC1c1ncc(-c2ccc(-c3ccc(-c4c[nH]c([C@@H]5C[C@@H](OC(=O)N6Cc7ccc8c(c7C6)OCO8)CN5C(=O)[C@@H](NC(=O)OC(C)(C)C)C(C)C)n4)cc3)cc2)[nH]1 (stereo partly shown) [Compound 6f]	> 50000 pM
COC(=O)N[C@H](C(=O)N1CC2(CC2)C[C@H]1c1nc(-c2ccc3c(c2)C(F)(F)c2cc(-c4ccc5[nH]c([C@@H]6[C@H]7CC[C@H](C7)N6C(=O)[C@@H](NC(=O)OC)C(C)C)nc5c4)ccc2-3)c[nH]1)C(C)C [Ref-2, reference compound]	1 to 999 pM

Same assay, conditions: Hepatitis C virus, genotype 1a / genotype 6a, read-out: EC50 for Replicon (pM) of GT-1a to GT-6a: 1a

Compound	EC50
COC(=O)N[C@@H](C(=O)N1CCCC1c1ncc(-c2ccc(-c3cc4sc(-c5cnc([C@@H]6CCCN6C(=O)[C@H](NC(=O)OC)c6ccccc6)[nH]5)cc4s3)cc2)[nH]1)c1ccccc1 (stereo partly shown) [Ref-3, reference compound]	51 pM
COC(=O)N[C@H](C(=O)N1CC2(CC2)C[C@H]1c1nc(-c2ccc3c(c2)C(F)(F)c2cc(-c4ccc5[nH]c([C@@H]6[C@H]7CC[C@H](C7)N6C(=O)[C@@H](NC(=O)OC)C(C)C)nc5c4)ccc2-3)c[nH]1)C(C)C [Ref-2, reference compound]	88 pM
